# From US20240336567A1, “PESTICIDAL AND HERBICIDAL COMPOUNDS AND METHODS OF USE THEREOF” (AG Plenus Ltd, priority 2021, published 2024)
# Columns and labels:
# LOLPE = test: In-planta LTP pre-emergence, visual phenotype; assay type: in vivo, Lolium perenne; conditions: monocot
# Experimental: (§1) A basic panel of 8 weed species (Table 3) were sowed in 4×4×7 cm plastic pots containing inert sand (Sweet sand), intensively washed using osmosis water. Each specie was sowed in a separate pot. In each pot 10-15 seeds were sowed according to the specie viability. Sowing was performed one day before application. The plants were grown for 21 days in a controlled greenhouse (26±2° C. day 20±2° C. night). Hood irrigation (tap water+Shefer 5:3:8 8 mM) was given at a 50% water content by weight. Compounds were soluble in water (DDW), and commercial herbicide control was soluble in formulation B (Table 4). Application was conducted with an industrial sprayer (TeeJet 6502E nozzle) at a rate of 2 kg/ha and spray volume of […]. Pre-emergence advanced dose response experiment application was conducted at six rates between 1-0.0312 kg/ha and spray volume of […]. Percentage of emergence was evaluated at 15 DAA. Visual phenotyping was recorded using a scale of 0-6 (0: no visible effect, 6: maximum effect) at 18 DAA. All experiments included an untreated control, a solvent control and a positive control (commercial herbicide A.I.). Statistical analysis for visual phenotyping determined by a median value of ≥3.5 and Fisher test (pval≤0.05). Statistical analysis for plant emergence determined by % emergence ≥50 and T test (pval≤0.05), as well as Wilcox test (pval≤0.05).
# [1] = in vitro thermal shift (binding of compound to the target); conditions: thermal shift caused by binding of the compound to the (unnamed) target
# Arabidopsis thaliana = test: HTPS (high throughput on soil) - Dicot - Post-emergence; assay type: in vivo; conditions: N/A: not active
# Experimental: (§2) Arabidopsis thaliana seeds were sown in 96 well plates filled with irrigated Sweet sand (10%>clay) that is washed from salts and minerals using tap water. 5-10 seeds were sown in the center of each well. 7-8 days post sowing, at 2 true leaves stage, thinning out was performed to ensure that compound application is done on a single plant per well. The plates were placed in a controlled greenhouse in a random order inside a bath which allows flooding irrigation with tap water supplemented with a fertilizer. Applied compounds were dissolved into a final solution of 50% acetone, 49.9% DDW, 0.1% tween-20. A 96 well plate was used as a stock plate for preparing application solutions for 8 repeats. Each row contained different concentrations per chemical. Maximal concentration for application was 1.5 Kg/Ha and dilution factor is 2.5. Chemical application was performed one day after thinning out in a chemical hood. 5 μL applied on first two true leaves in each well using 12 channel pipettes. Data collection: RGB (red, green, blue) data for green area per well was documented using camera. Data is collected at a few time points during the experiment: one day after thinning and before chemical application, two-, six- or nine-days post application. During the last two documentations, visual phenotyping was performed. Data analysis: Given RGB results and visual phenotype scores, a student t-test conducted to compare between treatment and control performance for continuous data (RGB) and Fisher exact test to analyze the non-continuous data (phenotypic scores). Dose-Response curves are generated for each treatment to infer ED50 and max. inhibition parameters, using treatment's log concentration range as the […] variable and normalized green area. Plate imaging performed at 11 and 18 DAA. RGB data for green area per well was documented and used to extract % inhibition. Dose-Response curves were built for each treatment to infer ED50, ED75 and ED90 parameters, using treatment's log concentration range as the independent variable and normalized green area as the dependent variable. Treatments were compared to controls performance given RGB results and using student's t-test (p-val≤0.05).
# SETVI = test: In-planta LTP pre-emergence, visual phenotype; assay type: in vivo, Setaria viridis; conditions: Setaria viridis, 432 h, monocot, read-out: IG Inhibited growth (% effect)
# Experimental: as §1
# AMAPA = test: In-planta LTP pre-emergence, visual phenotype; assay type: in vivo, Amaranthus palmeri; conditions: Amaranthus palmeri, 432 h, dicot, read-out: IG Inhibited growth (% effect)
# Experimental: as §1
# MATCA = test: In-planta LTP post-emergence, visual phenotype; assay type: in vivo, Matricaria chamomilla; conditions: dicot
# Experimental: A basic panel of eight weed species (Table 3) sowed in 4×4×7 cm plastic pots containing a garden mix (klasmann). Each specie was sowed in a separate pot. In each pot, 10-15 seeds were sowed according to the specie viability. Timing of application determined at a 1-2 true leaf stage. The plants grew for 30 days in a controlled greenhouse (26±2° C. day, 20±2° C. night). Hood irrigation (tap water+Shefer 5:3:8 8 mM) was given at a 50% water content by weight. Two days before application, the tested plants thinned down to three plants per pot. Compounds were soluble in water (DDW), and commercial herbicide control was soluble in formulation B (Table 4). […] Plants were evaluated at 3 time points (4, 8, 12 days after application (DAA)). At each time point, visual phenotyping was recorded using a scale of 0-6 (0: no visible effect, 6: maximum effect). […]
# Post-emergence advanced dose response experiment included 4 species: SETVI, ECHCO, AMAPA, ABUTH (Tables 3, 5). […] Plants were evaluated at 4 time points (6, 12, 18 and 26 DAA). At each time point, visual phenotyping was recorded using a scale of 0-6 (0: no visible effect, 6: maximum effect). […]
# Post-emergence advanced wide panel experiment included 24 weed species (Table 5). […] Visual phenotyping was recorded at 4, 11, 17 and 20 DAA using a scale of 0-6 (0: no visible effect, 6: maximum effect). […]
# Eragrostis teff = test: HTPS - Monocot - Pre-emergence; assay type: in vivo; conditions: N/A: not active
# Experimental: as §2, with “area. These experiments are conducted similarly except that either Arabidopsis thaliana or Eragrostis teff seeds were sowed (5-10 or 5-7, respectively), plant thinning out was not performed, compound dissolved into a final solution of 50% acetone, 49.9% DDW, compound application was done at 30 μL volume per well directly on sowed soil before plant emergence and data was collected 10 or 7 days after chemical application on dicot or monocot plants, respectively.” for “area.”
# POAAN = test: In-planta LTP pre-emergence, visual phenotype; assay type: in vivo, Poa annua; conditions: monocot
# Experimental: as §1
compound,measurement,setting,value
NCCOc1ccc(F)c(C(=O)O)c1 [Compound 129],IG Inhibited growth (% effect),LOLPE,IG (40) %
same,in vitro Thermal Shift,[1],9 °C
same,Emax,Arabidopsis thaliana; read-out: HTPS - Dicot - Post Max effect,81%
same,HTPS - Dicot - Post ED50,Arabidopsis thaliana; from normalized green area,45 g/ha
same,pest or weed control at 2000 g/ha,SETVI,40%
same,pest or weed control at 2000 g/ha,AMAPA,40%
same,LOD Lodging (% effect),MATCA,LOD^3 (40) %
same,HTPS - Monocot - Pre ED50,Eragrostis teff,550 g/ha
same,Emax,Eragrostis teff; read-out: HTPS - Monocot - Pre Max effect,86%
same,pest or weed control at 2000 g/ha,"POAAN; Poa annua, 432 h, read-out: IG Inhibited growth (% effect)",80%
same,DE Disturbed emergence (% effect),POAAN,DE (80) %
